ChEMBL document CHEMBL1201862, “PubChem BioAssay data set” (2004)
Calls of active or inactive are those of the source.

Assays:
[1] = Luminescence Cell-Based Dose Response HTS to Identify Inhibitors of Luciferase Translation or Activity in H4-C Neuroglioblastoma Cells. [Related pubchem assays: 1813 (Primary HTS), 1827 (Project Summary)]; type: functional
[2] = Luminescence Cell-Based Dose Response HTS to Identify Activators of Luciferase Translation or Activity in H4-C Neuroglioblastoma Cells. [Related pubchem assays: 1829 (Project Summary), 1814 (Primary HTS)]; type: functional
[3] = inhibitors of firefly luciferase expression or activity, dose response, H4 neuroglioma cells, luminescence (AID 1990); type: functional, cell-based
[4] = luciferase reporter signal reduction – luminescence, H4-C neuroglioblastoma cells, dose response (AID 2458); type: functional, cell-based;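 also: H4 neuroglioblastoma cells stably carrying a luciferase reporter gene fusion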
[5] = Luminescence Cell-Based Dose Retest to Confirm Activators of 5'UTR Stem-Loop Driven Alpha-Synuclein mRNA Translation in H4 Neuroglioblastoma Cells. [Related pubchem assays (depositor defined):AID1813, AID1829]; type: functional
[6] = Luminescence Cell-Based Dose Response HTS to Identify Activators of 5'UTR Stem-Loop Driven Prion Protein mRNA Translation in H4-C Neuroglioblastoma Cells. [Related pubchem assays: 1829 (Project Summary), 1814 (Primary HTS)]; type: functional
[7] = Luminescence Cell-Based Dose HTS Response to Identify Inhibitors of 5'UTR Stem-Loop Driven Prion Protein mRNA Translation in H4-C Neuroglioblastoma Cells. [Related pubchem assays (depositor defined):AID1814, AID1827]; type: functional
cells = type: functional, cell-based
[8] = Luminescence Cell-Based Dose Response HTS to Identify Inhibitors of 5'UTR Stem-Loop Driven Prion Protein mRNA Translation in H4 Neuroglioblastoma Cells. [Related pubchem assays: 1827 (Project Summary), 1813 (Primary HTS)]; type: functional
[9] = inhibitors of SNCA 5'UTR-driven reporter translation, confirmation, H4 neuroglioma cells, luminescence (AID 1988); type: functional, cell-based
[10] = Luminescence Cell-Based Dose Confirmation HTS to Identify Inhibitors of 5'UTR Stem-Loop Driven Alpha-Synuclein mRNA Translation in H4 Neuroglioblastoma Cells. [Related pubchem assays: 1827 (Project Summary), 1813 (Primary HTS)]; type: functional
[11] = inhibitors of SNCA 5'UTR-driven translation, confirmation, luminescence, H4 neuroglioblastoma cells, dose confirmation (AID 2454); type: functional, cell-based;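 also: H4 neuroglioblastoma cells carrying an alpha-synuclein 5'UTR luciferase reporter; potency for inhibition of the luciferase signal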
[12] = cytotoxicity in HEK-293T cells, dose response, cytotoxicity control for TCR NF-kB inhibitor project, luminescence, T-cell screen hits (AID 489026); type: functional, cell-based;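 also: cells exposed to compound about 14 hours before the viability readout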
[13] = target: T1, Tyrosine-protein phosphatase non-receptor type 7 (Homo sapiens, UniProt P35236); type: functional
T1 sequence (P35236 whole entry): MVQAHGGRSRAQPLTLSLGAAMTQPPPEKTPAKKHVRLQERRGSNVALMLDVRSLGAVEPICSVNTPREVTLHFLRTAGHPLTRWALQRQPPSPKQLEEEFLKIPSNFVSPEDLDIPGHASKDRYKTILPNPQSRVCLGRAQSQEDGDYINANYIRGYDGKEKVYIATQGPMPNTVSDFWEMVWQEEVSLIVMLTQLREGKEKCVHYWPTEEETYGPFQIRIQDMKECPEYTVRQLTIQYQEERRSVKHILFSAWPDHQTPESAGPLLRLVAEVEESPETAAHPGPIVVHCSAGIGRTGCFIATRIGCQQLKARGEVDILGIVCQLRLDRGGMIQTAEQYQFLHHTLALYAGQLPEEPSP

[14] = target: T2, Tyrosine-protein phosphatase non-receptor type 22 (Homo sapiens, UniProt Q9Y2R2); type: functional
T2 sequence (Q9Y2R2 whole entry): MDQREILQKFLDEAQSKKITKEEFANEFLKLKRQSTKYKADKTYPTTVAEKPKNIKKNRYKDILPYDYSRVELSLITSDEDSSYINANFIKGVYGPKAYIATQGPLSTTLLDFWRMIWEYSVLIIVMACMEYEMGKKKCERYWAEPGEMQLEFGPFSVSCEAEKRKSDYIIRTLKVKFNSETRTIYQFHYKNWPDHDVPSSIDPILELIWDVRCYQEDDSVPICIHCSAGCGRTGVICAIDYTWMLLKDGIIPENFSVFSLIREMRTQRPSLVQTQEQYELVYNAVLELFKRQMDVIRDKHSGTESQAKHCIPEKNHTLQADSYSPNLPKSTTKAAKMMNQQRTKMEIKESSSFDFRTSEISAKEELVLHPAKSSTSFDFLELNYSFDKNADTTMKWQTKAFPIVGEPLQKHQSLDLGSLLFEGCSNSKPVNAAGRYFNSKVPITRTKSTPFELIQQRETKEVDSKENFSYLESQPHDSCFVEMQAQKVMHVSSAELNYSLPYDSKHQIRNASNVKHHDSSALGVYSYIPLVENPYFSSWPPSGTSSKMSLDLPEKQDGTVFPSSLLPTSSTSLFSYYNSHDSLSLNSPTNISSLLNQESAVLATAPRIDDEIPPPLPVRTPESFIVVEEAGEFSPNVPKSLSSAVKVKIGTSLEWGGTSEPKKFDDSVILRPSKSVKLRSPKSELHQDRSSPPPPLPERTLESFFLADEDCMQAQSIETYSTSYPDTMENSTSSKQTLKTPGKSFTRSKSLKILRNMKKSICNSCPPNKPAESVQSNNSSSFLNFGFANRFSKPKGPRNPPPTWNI

[15] = target: T2, Tyrosine-protein phosphatase non-receptor type 22; type: functional; remark: listed apart in the source
[16] = target: Sphingosine 1-phosphate receptor 1 (Homo sapiens, UniProt P21453); assay: Fluorescence-based counterscreen assay for S1P4 agonists: Cell-based dose response high throughput screening assay to identify agonists of the Sphingosine 1-Phosphate Receptor 1 (S1P1). [Related pubchem assays (depositor defined):AID1509, AID1523, AID1801, AID463107, AID463118, AID463119, AID463122, AID463123, AID463129, AID463225, AID504400, AID504460]; type: functional
[17] = target: T3, Sphingosine 1-phosphate receptor 4 (Homo sapiens, UniProt O95977); assay: Fluorescence dose response cell-based high throughput screening assay for agonists of the Sphingosine 1-Phosphate Receptor 4 (S1P4). [Related pubchem assays: 1509 (Primary screen.), 1523 (Confirmation screen in triplicates.)]; type: functional
T3 sequence (O95977 whole entry): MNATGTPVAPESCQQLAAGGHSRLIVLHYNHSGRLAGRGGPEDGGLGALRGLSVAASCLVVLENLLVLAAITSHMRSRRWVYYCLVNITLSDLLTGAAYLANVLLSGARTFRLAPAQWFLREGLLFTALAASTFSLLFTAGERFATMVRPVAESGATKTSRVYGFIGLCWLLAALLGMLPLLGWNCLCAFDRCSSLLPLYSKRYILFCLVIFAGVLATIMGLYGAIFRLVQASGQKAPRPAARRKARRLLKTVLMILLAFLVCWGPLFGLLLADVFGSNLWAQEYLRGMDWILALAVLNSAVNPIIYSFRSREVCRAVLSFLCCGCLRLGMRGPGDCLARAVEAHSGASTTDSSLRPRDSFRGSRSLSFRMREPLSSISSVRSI

[18] = target: T4, G-protein coupled receptor 55 (Homo sapiens, UniProt Q9Y2T6); assay: GPR55 antagonists blocking LPI-driven arrestin recruitment, primary screen, imaging, U2OS, beta-arrestin-GFP, LPI agonist (AID 2013); type: functional;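 also: antagonist potency measured as reduced agonist-driven arrestin aggregation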
[19] = target: T5, Calpain-2 catalytic subunit (Sus scrofa, UniProt P43367); assay: pig calpain II inhibitor potency, dose response, biochemical, fluorogenic peptide substrate (AID 1420); type: functional
T5 sequence (P43367 whole entry): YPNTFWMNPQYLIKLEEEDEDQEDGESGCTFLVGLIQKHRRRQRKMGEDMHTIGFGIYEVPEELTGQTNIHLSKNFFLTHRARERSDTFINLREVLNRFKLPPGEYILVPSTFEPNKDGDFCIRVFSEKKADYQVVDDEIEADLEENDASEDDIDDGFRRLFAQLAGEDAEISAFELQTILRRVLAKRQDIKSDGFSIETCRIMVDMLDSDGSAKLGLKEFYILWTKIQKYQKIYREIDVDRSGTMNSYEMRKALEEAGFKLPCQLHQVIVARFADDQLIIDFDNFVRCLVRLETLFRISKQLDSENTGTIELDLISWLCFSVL

Cannabinoid receptor 1 [20] = target: T6, Cannabinoid receptor 1 (Homo sapiens, UniProt P21554); assay: SAR analysis of antagonists of the Cannabinoid Receptor 1 using an Image-Based Assay - Set 2. [Related pubchem assays (depositor defined):AID2013, AID2026]; type: functional
[21] = target: T7, G-protein coupled receptor 35 (Homo sapiens, UniProt Q9HC97); assay: SAR analysis of Agonists of the GPR35 Receptor using an Image-Based Assay - Set 2. [Related pubchem assays (depositor defined):AID2013, AID2026]; type: functional
Cannabinoid receptor 2 [22] = target: T8, Cannabinoid receptor 2 (Homo sapiens, UniProt P34972); assay: SAR analysis of antagonists of the Cannabinoid Receptor 2 using an Image-Based Assay. [Related pubchem assays (depositor defined):AID2013, AID2026]; type: functional
Cannabinoid receptor 1 [23] = target: T6, Cannabinoid receptor 1; assay: SAR analysis of agonists of the Cannabinoid Receptor 1 using an Image-Based Assay - Set 2. [Related pubchem assays (depositor defined):AID2013, AID2026]; type: functional
[24] = target: T7, G-protein coupled receptor 35; assay: SAR analysis of Antagonists of the GPR35 Receptor using an Image-Based Assay - Set 3. [Related pubchem assays (depositor defined):AID2013, AID2026]; type: functional
[25] = target: T4, G-protein coupled receptor 55; assay: GPR55 antagonist potency of analogs, SAR follow-up, imaging, U2OS, beta-arrestin-GFP, LPI agonist, set 2 (AID 2820); type: functional
Cannabinoid receptor 2 [26] = target: T8, Cannabinoid receptor 2; assay: SAR analysis of agonists of the Cannabinoid Receptor 2 using an Image-Based Assay. [Related pubchem assays (depositor defined):AID2013, AID2026]; type: functional
[27] = target: T9, Probable nicotinate-nucleotide adenylyltransferase (Staphylococcus aureus (strain N315), UniProt P65502); type: functional, Staphylococcus aureus subsp. aureus N315;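 as to IC50 Mean: confirmatory dose-response retesting of NadD inhibitor hits first found in an ultra-high-throughput screen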
[28] = target: T9, Probable nicotinate-nucleotide adenylyltransferase; type: functional, Staphylococcus aureus subsp. aureus N315; details: read-out: IC50_Mean

T6 sequence (P21554 whole entry): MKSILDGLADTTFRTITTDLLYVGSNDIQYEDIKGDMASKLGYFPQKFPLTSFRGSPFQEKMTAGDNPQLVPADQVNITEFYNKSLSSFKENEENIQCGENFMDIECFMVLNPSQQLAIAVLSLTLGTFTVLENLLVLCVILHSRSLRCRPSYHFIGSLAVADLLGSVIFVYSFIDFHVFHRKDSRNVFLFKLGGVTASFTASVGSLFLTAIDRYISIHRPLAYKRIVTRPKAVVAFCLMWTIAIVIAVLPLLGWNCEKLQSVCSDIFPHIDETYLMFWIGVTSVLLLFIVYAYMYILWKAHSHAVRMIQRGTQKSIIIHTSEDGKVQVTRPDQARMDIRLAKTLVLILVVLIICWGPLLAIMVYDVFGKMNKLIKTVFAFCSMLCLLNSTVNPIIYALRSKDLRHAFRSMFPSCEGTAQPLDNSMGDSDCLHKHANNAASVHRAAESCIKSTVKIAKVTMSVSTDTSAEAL
T8 sequence (P34972 whole entry): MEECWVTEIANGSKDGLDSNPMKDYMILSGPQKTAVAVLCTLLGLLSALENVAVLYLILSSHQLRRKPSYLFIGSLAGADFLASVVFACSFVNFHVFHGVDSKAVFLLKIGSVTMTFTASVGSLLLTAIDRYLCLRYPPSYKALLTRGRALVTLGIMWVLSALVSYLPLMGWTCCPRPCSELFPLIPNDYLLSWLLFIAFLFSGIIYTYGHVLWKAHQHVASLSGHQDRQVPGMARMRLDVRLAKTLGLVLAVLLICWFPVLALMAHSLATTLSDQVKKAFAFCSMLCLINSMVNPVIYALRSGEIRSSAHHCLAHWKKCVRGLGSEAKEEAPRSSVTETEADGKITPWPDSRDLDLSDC
T9 sequence (P65502 whole entry): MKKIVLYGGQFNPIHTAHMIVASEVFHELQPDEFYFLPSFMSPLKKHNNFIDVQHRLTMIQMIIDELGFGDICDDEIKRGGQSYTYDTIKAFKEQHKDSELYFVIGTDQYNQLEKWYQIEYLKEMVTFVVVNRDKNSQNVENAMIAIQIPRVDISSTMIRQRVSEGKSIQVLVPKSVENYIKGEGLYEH
T4 sequence (Q9Y2T6 whole entry): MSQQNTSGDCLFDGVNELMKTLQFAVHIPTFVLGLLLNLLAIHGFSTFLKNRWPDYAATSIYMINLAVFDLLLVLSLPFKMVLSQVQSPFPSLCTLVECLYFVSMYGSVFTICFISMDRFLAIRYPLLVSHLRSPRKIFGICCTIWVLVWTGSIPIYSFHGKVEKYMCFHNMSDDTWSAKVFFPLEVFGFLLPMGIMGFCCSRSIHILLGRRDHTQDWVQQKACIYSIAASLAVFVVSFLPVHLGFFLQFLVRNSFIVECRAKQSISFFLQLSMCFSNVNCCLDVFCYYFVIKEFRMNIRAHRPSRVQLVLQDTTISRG
T7 sequence (Q9HC97 whole entry): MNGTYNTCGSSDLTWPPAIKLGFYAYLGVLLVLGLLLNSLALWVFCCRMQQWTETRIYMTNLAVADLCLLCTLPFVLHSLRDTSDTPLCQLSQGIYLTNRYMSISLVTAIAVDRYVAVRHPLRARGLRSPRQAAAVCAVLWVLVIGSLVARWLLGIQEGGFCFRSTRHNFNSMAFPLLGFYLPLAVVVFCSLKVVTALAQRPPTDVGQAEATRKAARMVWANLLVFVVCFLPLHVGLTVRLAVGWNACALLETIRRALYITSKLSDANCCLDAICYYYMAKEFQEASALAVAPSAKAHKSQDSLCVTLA
Sphingosine 1-phosphate receptor 1, sequence (P21453 whole entry): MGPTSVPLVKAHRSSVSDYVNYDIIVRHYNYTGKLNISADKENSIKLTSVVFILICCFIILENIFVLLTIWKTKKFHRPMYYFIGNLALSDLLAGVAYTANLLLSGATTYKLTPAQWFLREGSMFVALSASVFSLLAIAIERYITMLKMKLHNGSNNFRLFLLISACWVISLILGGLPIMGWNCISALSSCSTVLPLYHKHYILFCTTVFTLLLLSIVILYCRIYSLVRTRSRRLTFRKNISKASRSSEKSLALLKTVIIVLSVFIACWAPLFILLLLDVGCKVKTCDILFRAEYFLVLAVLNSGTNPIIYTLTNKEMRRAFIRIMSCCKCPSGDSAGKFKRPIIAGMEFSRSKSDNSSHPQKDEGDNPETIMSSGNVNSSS

In the case of `CCOC(=O)COc1cccc2c(=O)n(CC(=O)NCc3ccc(F)cc3)ccc12`, the EC50 [1] is reported as 1.36 µM (active), the EC50 [2] is reported as 1.36 µM (inconclusive) and the EC50 [3] is reported as 12.6 µM (active). For the same molecule, the EC50 [4] was > 12 µM (inconclusive), the EC50 [5] was 26.6 µM (inconclusive) and the EC50 [6] was 22.4 µM (inconclusive). The EC50 [7] was 22.4 µM (active), the EC50 (cells) was 2.36 µM (active) and the EC50 [8] was > 120 µM (not active). For the same molecule, the EC50 [9] was < 0.1 µM (active), the EC50 [10] was 26.6 µM (active) and the EC50 [11] was 1.51 µM (active). The IC50 [12] was > 80 µM (inactive).

In the case of `CC1=NN(C(=O)c2ccc(Cn3ccc([N+](=O)[O-])n3)cc2)C(O)(C(F)(F)F)C1` (centres undefined), the IC50 [13] is reported as > 79.4 µM (inactive), the IC50 [14] is reported as > 79.4 µM (inactive) and the IC50 [15] is reported as > 79.4 µM (inactive).

In the case of `Cc1ccc2nc3c(cc(C#N)c(=O)n3-c3nccs3)c(=O)n2c1`, the EC50 [16] is reported as 10.6 µM (inactive) and the EC50 [17] is reported as 3.72 µM (active).

In the case of `Cc1cc(C)c2nc(-c3cccnc3)cc(C(=O)Nc3ccc(S(=O)(=O)Nc4onc(C)c4C)cc3)c2c1`, the IC50 [18] is reported as 1.55 µM (active), the IC50 [19] is reported as > 50 µM (not active) and the IC50 (Cannabinoid receptor 1 [20]) is reported as > 32 µM (inactive). The EC50 [21] was > 32 µM (inactive), the IC50 (Cannabinoid receptor 2 [22]) was > 32 µM (inactive) and the EC50 (Cannabinoid receptor 1 [23]) was > 32 µM (inactive). For the same molecule, the IC50 [24] was > 32 µM (inactive), the IC50 [25] was 0.457 µM (active) and the EC50 (Cannabinoid receptor 2 [26]) was > 32 µM (inactive). For the same molecule, the IC50 [27] was 3.76 µM (active) and the IC50 [28] was 12.5 µM (active).
